Experimental data: US12516056B2, “Compounds for inhibition of janus kinase 1” (MANKIND PHARMA LTD., priority 2019, dated 2026)
Counter-ions that a name gives are not always drawn. Like-named read-outs stand apart in the source and are kept apart here.

Tests used:
[1] = target: T1, Recombinant JAK2 (Homo sapiens, UniProt O60674); test: JAK biochemical assay (LANCE Ultra TR-FRET), JAK2; settings: recombinant JAK2, TR-FRET; read-out: Biochemical Assay (μM) JAK2
T1 construct: purchased Carna Biosciences
T1 sequence (O60674 whole entry): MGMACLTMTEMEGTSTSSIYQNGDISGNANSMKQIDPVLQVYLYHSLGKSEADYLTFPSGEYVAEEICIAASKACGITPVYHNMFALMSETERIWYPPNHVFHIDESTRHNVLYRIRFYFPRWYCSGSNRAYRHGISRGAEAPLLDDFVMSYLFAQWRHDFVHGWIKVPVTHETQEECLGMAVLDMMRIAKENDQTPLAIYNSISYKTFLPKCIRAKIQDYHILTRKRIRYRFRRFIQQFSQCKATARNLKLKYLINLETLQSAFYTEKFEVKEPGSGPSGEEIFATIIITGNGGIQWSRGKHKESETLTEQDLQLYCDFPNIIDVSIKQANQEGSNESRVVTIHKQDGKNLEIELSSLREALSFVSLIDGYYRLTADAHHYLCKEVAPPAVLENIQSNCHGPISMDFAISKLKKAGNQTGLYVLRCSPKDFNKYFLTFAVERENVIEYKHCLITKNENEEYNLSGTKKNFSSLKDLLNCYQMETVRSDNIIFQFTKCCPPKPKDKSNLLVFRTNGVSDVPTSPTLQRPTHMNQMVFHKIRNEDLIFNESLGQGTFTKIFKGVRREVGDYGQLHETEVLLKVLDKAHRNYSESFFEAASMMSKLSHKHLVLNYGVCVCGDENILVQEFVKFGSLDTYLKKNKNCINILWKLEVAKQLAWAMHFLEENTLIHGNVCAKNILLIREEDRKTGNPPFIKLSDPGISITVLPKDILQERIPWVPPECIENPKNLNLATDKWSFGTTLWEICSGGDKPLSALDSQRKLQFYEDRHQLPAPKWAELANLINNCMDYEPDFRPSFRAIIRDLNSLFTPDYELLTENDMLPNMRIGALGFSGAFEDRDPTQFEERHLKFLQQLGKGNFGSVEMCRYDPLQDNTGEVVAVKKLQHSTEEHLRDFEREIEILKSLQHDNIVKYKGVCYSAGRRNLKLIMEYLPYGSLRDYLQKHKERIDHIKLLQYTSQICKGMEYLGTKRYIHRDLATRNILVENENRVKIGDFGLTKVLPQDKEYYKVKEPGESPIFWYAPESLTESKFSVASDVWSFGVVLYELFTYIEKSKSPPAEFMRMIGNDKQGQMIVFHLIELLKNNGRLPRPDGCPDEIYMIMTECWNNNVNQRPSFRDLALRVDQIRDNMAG
In short: (§1)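 TR-FRET read-out of ULight substrate phosphorylation by recombinant kinase gives % inhibition relative to vehicle. The assay buffer is HEPES pH 7.5 with EGTA, MgCl2, DTT and Tween-20.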

[2] = test system: STAT3 phosphorylation by IL-6 in TF-1 cells; test: JAK cellular assay: STAT3 phosphorylation by IL-6 in TF-1 cells (HTRF); type: cell-based; settings: IL-6 30 ng/ml, pSTAT3 HTRF, read-out: Cell Based Assay (μM) TF-1/IL-6/pSTAT3
In short: (§2)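 Phospho-STAT3 (IL-6, 30 ng/ml) and phospho-STAT5 (GMCSF, 5 ng/ml) read by HTRF in lysates after 20 min cytokine exposure, minus unstimulated-cell background. Cells were serum-starved overnight, plated at 120,000/well, given compound 30 min at 37 °C beforehand; DMSO 0.2% final.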

[3] = target: T2, Recombinant TYK2 (Homo sapiens, UniProt P29597); test: JAK biochemical assay (LANCE Ultra TR-FRET), TYK2; settings: recombinant TYK2, TR-FRET; read-out: Biochemical Assay (μM) TYK2
T2 construct: purchased Carna Biosciences
T2 sequence (P29597 whole entry): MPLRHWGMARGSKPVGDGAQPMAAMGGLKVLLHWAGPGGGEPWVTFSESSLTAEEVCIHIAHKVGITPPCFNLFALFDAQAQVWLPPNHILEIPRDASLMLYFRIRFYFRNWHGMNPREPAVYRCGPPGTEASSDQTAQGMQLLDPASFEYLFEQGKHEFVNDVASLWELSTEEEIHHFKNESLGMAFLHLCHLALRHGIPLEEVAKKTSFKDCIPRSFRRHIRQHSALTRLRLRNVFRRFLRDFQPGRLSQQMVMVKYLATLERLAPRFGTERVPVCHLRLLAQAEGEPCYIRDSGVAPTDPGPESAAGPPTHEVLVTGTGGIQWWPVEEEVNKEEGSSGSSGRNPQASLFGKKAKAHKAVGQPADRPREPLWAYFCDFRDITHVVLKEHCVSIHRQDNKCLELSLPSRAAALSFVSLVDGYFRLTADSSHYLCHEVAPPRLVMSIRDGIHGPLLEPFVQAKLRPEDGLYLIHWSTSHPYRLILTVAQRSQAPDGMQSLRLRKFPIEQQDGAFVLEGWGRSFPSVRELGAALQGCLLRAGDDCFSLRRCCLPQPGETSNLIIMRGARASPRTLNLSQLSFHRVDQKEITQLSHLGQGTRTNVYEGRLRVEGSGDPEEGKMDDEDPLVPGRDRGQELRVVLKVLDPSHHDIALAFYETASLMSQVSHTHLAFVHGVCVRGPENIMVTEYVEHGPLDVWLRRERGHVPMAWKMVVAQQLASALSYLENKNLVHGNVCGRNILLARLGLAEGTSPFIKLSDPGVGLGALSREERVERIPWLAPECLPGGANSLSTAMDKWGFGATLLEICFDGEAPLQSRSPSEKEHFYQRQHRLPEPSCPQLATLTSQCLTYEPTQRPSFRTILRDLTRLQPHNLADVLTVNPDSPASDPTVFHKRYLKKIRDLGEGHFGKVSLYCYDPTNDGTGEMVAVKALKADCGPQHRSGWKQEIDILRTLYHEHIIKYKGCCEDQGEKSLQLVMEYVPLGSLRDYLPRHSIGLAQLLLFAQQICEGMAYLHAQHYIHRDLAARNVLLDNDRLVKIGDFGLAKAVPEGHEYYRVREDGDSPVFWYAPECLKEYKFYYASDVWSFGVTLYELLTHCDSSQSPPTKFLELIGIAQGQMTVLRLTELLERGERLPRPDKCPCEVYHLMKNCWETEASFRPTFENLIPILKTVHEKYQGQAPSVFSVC
In short: as §1

[4] = test system: STAT5 phosphorylation by GMCSF in TF-1 cells; test: JAK cellular assay: STAT5 phosphorylation by GMCSF in TF-1 cells (HTRF); type: cell-based; settings: Homo sapiens; TF-1 cells, GMCSF 5 ng/ml, pSTAT5 HTRF; read-out: Cell Based Assay (μM) TF-1/GMCSF/pSTAT5
In short: as §2

[5] = test system: STAT5 phosphorylation by IL-2 in HT-2 cells; test: STAT5 phosphorylation by IL-2 in HT-2 cells (HTRF); type: cell-based; settings: IL-2 50 U/ml, pSTAT5 HTRF, read-out: Cell Based Assay (μM) HT-2/IL-2/pSTAT5
In short: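 Readout is HTRF detection of phospho-STAT5 in lysates, corrected for signal from unstimulated cells. Before lysis, HT-2 cells starved in 10% FBS medium received compound for 30 min (0.2% DMSO final, 37 °C), followed by 50 U/ml recombinant human IL-2 for 20 min.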

[6] = target: T3, Recombinant JAK3 (Homo sapiens, UniProt P52333); test: JAK biochemical assay (LANCE Ultra TR-FRET), JAK3; settings: recombinant JAK3, TR-FRET; read-out: Biochemical Assay (μM) JAK3
T3 construct: purchased Carna Biosciences
T3 sequence (P52333 1-1124): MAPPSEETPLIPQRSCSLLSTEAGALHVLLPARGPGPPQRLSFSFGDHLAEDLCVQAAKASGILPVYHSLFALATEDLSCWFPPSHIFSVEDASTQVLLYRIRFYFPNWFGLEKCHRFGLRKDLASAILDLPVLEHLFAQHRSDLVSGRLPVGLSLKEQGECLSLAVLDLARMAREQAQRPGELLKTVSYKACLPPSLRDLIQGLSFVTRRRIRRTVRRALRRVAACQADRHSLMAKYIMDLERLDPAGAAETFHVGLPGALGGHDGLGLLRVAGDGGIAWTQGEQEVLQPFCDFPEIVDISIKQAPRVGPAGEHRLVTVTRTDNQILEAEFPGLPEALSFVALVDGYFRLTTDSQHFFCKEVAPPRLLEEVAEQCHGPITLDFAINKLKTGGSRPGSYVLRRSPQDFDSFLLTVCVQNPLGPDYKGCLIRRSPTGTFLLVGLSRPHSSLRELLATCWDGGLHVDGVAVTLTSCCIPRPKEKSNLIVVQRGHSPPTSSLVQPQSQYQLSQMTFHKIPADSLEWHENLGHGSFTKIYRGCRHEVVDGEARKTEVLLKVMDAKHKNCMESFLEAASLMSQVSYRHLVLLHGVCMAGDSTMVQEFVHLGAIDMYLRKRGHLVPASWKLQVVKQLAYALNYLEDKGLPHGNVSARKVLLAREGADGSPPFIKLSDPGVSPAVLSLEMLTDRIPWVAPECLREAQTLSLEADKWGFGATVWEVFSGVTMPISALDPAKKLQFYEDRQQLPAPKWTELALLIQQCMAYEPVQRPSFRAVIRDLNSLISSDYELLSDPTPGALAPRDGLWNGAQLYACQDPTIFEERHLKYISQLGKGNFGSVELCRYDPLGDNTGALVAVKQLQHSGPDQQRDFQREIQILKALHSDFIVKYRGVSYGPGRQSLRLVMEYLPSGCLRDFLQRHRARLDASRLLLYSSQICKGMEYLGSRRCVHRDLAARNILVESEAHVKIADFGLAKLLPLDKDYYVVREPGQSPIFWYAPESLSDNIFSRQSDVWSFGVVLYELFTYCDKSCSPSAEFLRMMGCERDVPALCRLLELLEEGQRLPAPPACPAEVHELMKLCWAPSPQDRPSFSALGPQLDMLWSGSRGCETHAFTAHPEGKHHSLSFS
In short: as §1

[7] = target: T4, Recombinant JAK1 (Homo sapiens, UniProt P23458); test: JAK biochemical assay (LANCE Ultra TR-FRET), JAK1; settings: recombinant JAK1, TR-FRET; read-out: Biochemical Assay (μM) JAK1
T4 construct: purchased Carna Biosciences
T4 sequence (P23458 whole entry): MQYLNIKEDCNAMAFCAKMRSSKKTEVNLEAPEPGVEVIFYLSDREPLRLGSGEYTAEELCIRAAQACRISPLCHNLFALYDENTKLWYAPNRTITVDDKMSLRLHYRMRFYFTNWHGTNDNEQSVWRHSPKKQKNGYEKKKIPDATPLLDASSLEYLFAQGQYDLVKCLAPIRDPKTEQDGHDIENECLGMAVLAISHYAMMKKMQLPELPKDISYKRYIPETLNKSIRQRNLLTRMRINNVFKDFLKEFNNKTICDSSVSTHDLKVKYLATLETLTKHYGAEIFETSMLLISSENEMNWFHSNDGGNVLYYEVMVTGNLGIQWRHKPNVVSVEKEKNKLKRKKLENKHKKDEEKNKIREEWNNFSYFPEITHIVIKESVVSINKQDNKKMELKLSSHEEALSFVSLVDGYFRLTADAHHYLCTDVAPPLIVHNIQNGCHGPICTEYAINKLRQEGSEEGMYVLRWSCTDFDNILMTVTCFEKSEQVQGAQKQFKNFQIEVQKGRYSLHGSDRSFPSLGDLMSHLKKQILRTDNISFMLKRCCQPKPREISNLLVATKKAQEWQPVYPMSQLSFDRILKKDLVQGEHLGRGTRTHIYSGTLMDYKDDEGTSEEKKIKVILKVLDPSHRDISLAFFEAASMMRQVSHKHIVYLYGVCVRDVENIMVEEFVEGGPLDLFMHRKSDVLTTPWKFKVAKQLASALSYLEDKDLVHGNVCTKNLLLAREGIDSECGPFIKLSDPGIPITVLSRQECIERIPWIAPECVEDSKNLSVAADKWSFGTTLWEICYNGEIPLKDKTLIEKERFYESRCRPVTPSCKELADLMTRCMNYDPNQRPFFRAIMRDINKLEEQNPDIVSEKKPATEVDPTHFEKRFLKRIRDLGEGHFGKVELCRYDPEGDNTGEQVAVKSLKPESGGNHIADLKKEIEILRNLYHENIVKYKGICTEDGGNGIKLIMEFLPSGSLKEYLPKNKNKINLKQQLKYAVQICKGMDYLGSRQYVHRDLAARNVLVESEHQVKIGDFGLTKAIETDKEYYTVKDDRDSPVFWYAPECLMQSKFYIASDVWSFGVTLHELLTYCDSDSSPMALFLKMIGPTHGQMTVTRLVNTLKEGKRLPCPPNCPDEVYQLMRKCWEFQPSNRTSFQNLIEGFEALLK
In short: as §1

SMILES | IC50 [1] [µM] | IC50 ([2]; TF-1 cells) [µM] | IC50 [3] [µM] | IC50 [4] [µM] | IC50 ([5]; HT-2 cells) [µM] | IC50 [6] [µM] | IC50 [7] [µM] | IC50 ([2]; Homo sapiens, TF-1, TF-1 cells) [µM] | IC50 ([5]; HT2, HT-2 cells) [µM]
CNCCC(c1ccc(-n2cc(-c3ccnc4[nH]cnc34)cn2)nc1)C(F)(F)F (stereo not drawn) [Example 1198, 3-(6-(4-(3H-imidazo[4,5-b]pyridin-7-yl)-1H-pyrazol-1-yl)pyridin-3-yl)-4,4,4-trifluoro-N-methylbutan-1-amine] | < 0.1 | 0.1 | > 0.5 | 1 | 0.6 | < 0.1 | < 0.1 | – | –
CC(C)C(O)(c1ccc(-n2cc(-c3ccnc4[nH]cnc34)cn2)nc1)C(F)(F)F (stereo not drawn) [Example 1129, 2-(6-(4-(3H-imidazo[4,5-b]pyridin-7-yl)-1H-pyrazol-1-yl)pyridin-3-yl)-1,1,1-trifluoro-3-methylbutan-2-ol] | > 0.1 | – | > 1 | > 10 | – | < 0.1 | < 0.1 | > 0.5 | > 1
CNCCOC(c1ccc(-n2cc(-c3ccnc4[nH]cnc34)cn2)nc1)C(F)(F)F (stereo not drawn) [Example 1228, 2-(1-(6-(4-(3H-imidazo[4,5-b]pyridin-7-yl)-1H-pyrazol-1-yl)pyridin-3-yl)-2,2,2-trifluoroethoxy)-N-methylethanamine] | < 0.1 | – | > 0.1 | > 1 | – | < 0.1 | < 0.1 | > 0.5 | > 0.5
CCC(c1ccc(-n2cc(-c3ccnc4[nH]cnc34)cn2)nc1)C(F)(F)F (stereo not drawn) [Example 1122, 7-(1-(5-(1,1,1-trifluorobutan-2-yl)pyridin-2-yl)-1H-pyrazol-4-yl)-3H-imidazo[4,5-b]pyridine] | > 0.5 | – | > 1 | > 1 | – | > 0.5 | > 0.1 | > 1 | > 1
FC(F)(F)[C@H](c1ccc(-n2cc(-c3ccnc4[nH]cnc34)cn2)nc1)C1COC1 (single isomer, unassigned) [Example 1185] | > 0.1 | – | > 1 | > 1 | – | > 0.1 | < 0.1 | 2 | > 3
CC(C)NCCC(c1ccc(-n2cc(-c3ccnc4[nH]cnc34)cn2)nc1)C(F)(F)F (stereo not drawn) [Example 1203, 3-(6-(4-(3H-imidazo[4,5-b]pyridin-7-yl)-1H-pyrazol-1-yl)pyridin-3-yl)-4,4,4-trifluoro-N-isopropylbutan-1-amine] | < 0.1 | – | > 0.5 | > 1 | – | < 0.1 | < 0.1 | > 0.1 | > 0.5
CS(=O)(=O)CCC(O)(c1ccc(-n2cc(-c3ccnc4[nH]cnc34)cn2)nc1)C(F)(F)F (stereo not drawn) [Example 1223, 2-(6-(4-(3H-imidazo[4,5-b]pyridin-7-yl)-1H-pyrazol-1-yl)pyridin-3-yl)-1,1,1-trifluoro-4-(methylsulfonyl)butan-2-ol] | 0.015 | – | 0.39 | > 1 | – | 0.004 | 0.002 | > 0.1 | > 0.5

More lines, now with the values ahead:

IC50 [1] [µM] | IC50 ([2]; TF-1 cells) [µM] | IC50 [3] [µM] | IC50 [4] [µM] | IC50 ([5]; HT-2 cells) [µM] | IC50 [6] [µM] | IC50 [7] [µM] | IC50 ([2]; Homo sapiens, TF-1, TF-1 cells) [µM] | IC50 ([5]; HT2, HT-2 cells) [µM] | SMILES
> 0.1 | – | > 1 | > 1 | – | < 0.1 | < 0.1 | > 0.5 | > 0.75 | CC(C)NCCOC(c1ccc(-n2cc(-c3ccnc4[nH]cnc34)cn2)nc1)C(F)(F)F (stereo not drawn) [Example 1241, N-(2-(1-(6-(4-(3H-imidazo[4,5-b]pyridin-7-yl)-1H-pyrazol-1-yl)pyridin-3-yl)-2,2,2-trifluoroethoxy)ethyl)propan-2-amine, TFA salt]
< 0.1 | – | > 1 | > 1 | – | < 0.1 | < 0.1 | 0.7 | 0.8 | FC(F)(F)C(c1ccc(-n2cc(-c3ccnc4[nH]cnc34)cn2)nc1)C1COC1 (stereo not drawn) [Example 1136, 7-(1-(5-(2,2,2-trifluoro-1-(oxetan-3-yl)ethyl)pyridin-2-yl)-1H-pyrazol-4-yl)-3H-imidazo[4,5-b]pyridine]
< 0.1 | – | > 1 | > 1 | – | < 0.1 | < 0.1 | > 1 | > 1 | O[C@](c1ccc(-n2cc(-c3ccnc4[nH]cnc34)cn2)nc1)(C1CCN(C2COC2)C1)C(F)(F)F (stereo partly drawn) [Example 1243, (S)-1-(6-(4-(3H-imidazo[4,5-b]pyridin-7-yl)-1H-pyrazol-1-yl)pyridin-3-yl)-2,2,2-trifluoro-1-(1-(oxetan-3-yl)pyrrolidin-3-yl)ethanol]
> 0.1 | – | > 1 | > 1 | – | > 0.1 | < 0.1 | > 0.5 | > 1 | O=C(NCCC(c1ccc(-n2cc(-c3ccnc4[nH]cnc34)cn2)nc1)C(F)(F)F)C1CCCC1 (stereo not drawn) [Example 1151, N-(3-(6-(4-(3H-imidazo[4,5-b]pyridin-7-yl)-1H-pyrazol-1-yl)pyridin-3-yl)-4,4,4-trifluorobutyl)cyclopentanecarboxamide]
0.044 | – | 0.096 | > 10 | – | 0.146 | 0.028 | > 10 | > 10 | N#CCNC(=O)n1cc(-c2ccnc3[nH]c(=O)[nH]c23)cn1 [Example 1027, N-(cyanomethyl)-4-(2,3-dihydro-2-oxo-1H-imidazo[4,5-b]pyridin-7-yl)-1H-pyrazole-1-carboxamide]
< 0.1 | – | > 1 | < 1 | – | < 0.1 | < 0.1 | 0.47 | 0.67 | CS(=O)(=O)NCCC(c1ccc(-n2cc(-c3ccnc4[nH]cnc34)cn2)nc1)C(F)(F)F (stereo not drawn) [Example 1143, N-(3-(6-(4-(3H-imidazo[4,5-b]pyridin-7-yl)-1H-pyrazol-1-yl)pyridin-3-yl)-4,4,4-trifluorobutyl)methanesulfonamide]
0.036 | – | > 1 | > 1 | – | 0.007 | 0.003 | 0.34 | < 1 | OC(c1ccc(-n2cc(-c3ccnc4[nH]cnc34)cn2)nc1)(C1CC1)C(F)(F)F (stereo not drawn) [Example 1126, 1-(6-(4-(3H-imidazo[4,5-b]pyridin-7-yl)-1H-pyrazol-1-yl)pyridin-3-yl)-1-cyclopropyl-2,2,2-trifluoroethanol]
< 0.1 | – | > 0.5 | > 1 | – | < 0.1 | < 0.1 | 0.36 | 2.1 | FC(F)(F)C(CCNC1CC1)c1ccc(-n2cc(-c3ccnc4[nH]cnc34)cn2)nc1 (stereo not drawn) [Example 1153, N-(3-(6-(4-(3H-imidazo[4,5-b]pyridin-7-yl)-1H-pyrazol-1-yl)pyridin-3-yl)-4,4,4-trifluorobutyl)cyclopropanamine]
